# Test results: ChEMBL document CHEMBL1201862, “PubChem BioAssay data set” (2004)
#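 Where inhibition never reached the appropriate level, the endpoint shown equals the highest concentration tested. Otherwise, values were interpolated linearly from a five-concentration, 48-hour dose response in 96-well plates. Abbreviation: GI50, concentration required for 50% inhibition of growth.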 Calls of active or inactive are those of the source. Cut-off read from the data, not from the text of the source: active = GI50 up to about 1.1 µM and inactive = higher.
# Columns and labels:
# Test in all cases: growth of human tumour cells (NCI), 48 h
# SK-MEL-2 = test system: SK-MEL-2
# SK-OV-3 = test system: SK-OV-3
# MDA-MB-231 = test system: MDA-MB-231
# RPMI-8226 = test system: RPMI-8226
# RXF 393 = test system: RXF 393
# SW-620 = test system: SW-620
# SK-MEL-5 = test system: SK-MEL-5
# COLO 205 = test system: COLO 205
# TK-10 = test system: TK-10
# BT-549 = test system: BT-549
# MDA-MB-435 = test system: MDA-MB-435
# UACC-257 = test system: UACC-257
# HCT-15 = test system: HCT-15
# U-251 = test system: U-251
# T47D = test system: T47D
# KM12 = test system: KM12
# HOP-62 = test system: HOP-62
# A498 = test system: A498
# SK-MEL-28 = test system: SK-MEL-28
# SF-295 = test system: SF-295
# SNB-19 = test system: SNB-19
# SN12C = test system: SN12C
# UACC-62 = test system: UACC-62
# M14 = test system: M14
# SF-539 = test system: SF-539
# PC-3 = test system: PC-3
# OVCAR-4 = test system: OVCAR-4
# SNB-75 = test system: SNB-75
# OVCAR-8 = test system: OVCAR-8
# MDA-N = test system: MDA-N
# NCI-H23 = test system: NCI-H23
# SF-268 = test system: SF-268
# EKVX = test system: EKVX
# CAKI-1 = test system: CAKI-1
# A549 = test system: A549
# UO-31 = test system: UO-31
# NCI/ADR-RES = test system: NCI/ADR-RES
# OVCAR-3 = test system: OVCAR-3
# NCI-H522 = test system: NCI-H522
# Hs-578T = test system: Hs-578T
# MOLT-4 = test system: MOLT-4
# HCT-116 = test system: HCT-116
# 786-0 = test system: 786-0
# K562 = test system: K562
# MCF7 = test system: MCF7
# DU-145 = test system: DU-145
# OVCAR-5 = test system: OVCAR-5
# NCI-H460 = test system: NCI-H460
# ACHN = test system: ACHN
# LOX IMVI = test system: LOX IMVI
# HL-60 = test system: HL-60
# HCC 2998 = test system: HCC 2998
# HT-29 = test system: HT-29
# Malme-3M = test system: Malme-3M
# CCRF-CEM = test system: CCRF-CEM
# IGROV-1 = test system: IGROV-1
# NCI-H226 = test system: NCI-H226
structure (smiles),measurement,setting,value
CCCCCCCCCc1nn2c(Cc3ccccc3)nnc2s1,GI50,SK-MEL-2,19.8 µM (inactive)
same,GI50,SK-OV-3,25.5 µM (inactive)
same,GI50,MDA-MB-231,24.5 µM (inactive)
same,GI50,RPMI-8226,23.6 µM (inactive)
same,GI50,RXF 393,18.5 µM (inactive)
same,GI50,SW-620,17.6 µM (inactive)
same,GI50,SK-MEL-5,15.9 µM (inactive)
same,GI50,COLO 205,17.5 µM (inactive)
same,GI50,TK-10,24.6 µM (inactive)
same,GI50,BT-549,18.8 µM (inactive)
same,GI50,MDA-MB-435,26.3 µM (inactive)
same,GI50,UACC-257,23.5 µM (inactive)
same,GI50,HCT-15,19.5 µM
same,GI50,U-251,18.7 µM (inactive)
same,GI50,T47D,24.7 µM (inactive)
same,GI50,KM12,25 µM (inactive)
same,GI50,HOP-62,19.9 µM (inactive)
same,GI50,A498,18.2 µM (inactive)
same,GI50,SK-MEL-28,17.7 µM (inactive)
same,GI50,SF-295,18.9 µM (inactive)
same,GI50,SNB-19,18.2 µM (inactive)
same,GI50,SN12C,18.2 µM (inactive)
same,GI50,UACC-62,18 µM (inactive)
same,GI50,M14,20.8 µM (inactive)
same,GI50,SF-539,18.1 µM (inactive)
same,GI50,PC-3,22.1 µM (inactive)
same,GI50,OVCAR-4,20 µM (inactive)
same,GI50,SNB-75,26.4 µM (inactive)
same,GI50,OVCAR-8,15.3 µM (inactive)
same,GI50,MDA-N,20.6 µM (inactive)
same,GI50,NCI-H23,19.2 µM (inactive)
same,GI50,SF-268,16.7 µM (inactive)
same,GI50,EKVX,15.5 µM (inactive)
same,GI50,CAKI-1,30.3 µM (inactive)
same,GI50,A549,20.5 µM (inactive)
same,GI50,UO-31,13.1 µM (inactive)
same,GI50,NCI/ADR-RES,16.7 µM (inactive)
same,GI50,OVCAR-3,17.2 µM (inactive)
same,GI50,NCI-H522,14 µM (inactive)
same,GI50,Hs-578T,20.8 µM (inactive)
same,GI50,MOLT-4,17.3 µM (inactive)
same,GI50,HCT-116,18 µM (inactive)
same,GI50,786-0,19.2 µM (inactive)
same,GI50,K562,32.5 µM (inactive)
same,GI50,MCF7,41.1 µM (inactive)
same,GI50,DU-145,22.4 µM (inactive)
same,GI50,OVCAR-5,14.4 µM (inactive)
same,GI50,NCI-H460,18.5 µM (inactive)
same,GI50,ACHN,20 µM (inactive)
CCN(CC)CCCNc1nncc2cc3c([nH]c4ccccc43)c(C)c12,GI50,SK-MEL-2,36.4 µM (inactive)
same,GI50,SK-OV-3,15.2 µM (inactive)
same,GI50,LOX IMVI,5.18 µM (inactive)
same,GI50,MDA-MB-231,4.65 µM (inactive)
same,GI50,RPMI-8226,12 µM (inactive)
same,GI50,HL-60,5.02 µM (inactive)
same,GI50,SW-620,4.4 µM (inactive)
same,GI50,SK-MEL-5,19.3 µM (inactive)
same,GI50,COLO 205,8.75 µM (inactive)
same,GI50,TK-10,20.9 µM (inactive)
same,GI50,BT-549,17.9 µM (inactive)
same,GI50,MDA-MB-435,18.2 µM (inactive)
same,GI50,UACC-257,15.6 µM (inactive)
same,GI50,HCT-15,16 µM
same,GI50,U-251,6.04 µM (inactive)
same,GI50,T47D,13.3 µM (inactive)
same,GI50,KM12,5.18 µM (inactive)
same,GI50,HCC 2998,11 µM (inactive)
same,GI50,HT-29,4.03 µM (inactive)
same,GI50,Malme-3M,17.6 µM (inactive)
same,GI50,HOP-62,12.9 µM (inactive)
same,GI50,A498,15.4 µM (inactive)
same,GI50,CCRF-CEM,4.1 µM (inactive)
same,GI50,SK-MEL-28,17.7 µM (inactive)
same,GI50,SF-295,16 µM (inactive)
same,GI50,SNB-19,12.4 µM (inactive)
same,GI50,SN12C,6.24 µM (inactive)
same,GI50,UACC-62,15.7 µM (inactive)
same,GI50,M14,20.5 µM (inactive)
same,GI50,SF-539,16 µM (inactive)
same,GI50,PC-3,8.13 µM (inactive)
same,GI50,SNB-75,13.2 µM (inactive)
same,GI50,OVCAR-8,7.29 µM (inactive)
same,GI50,MDA-N,16.4 µM (inactive)
same,GI50,NCI-H23,14.1 µM (inactive)
same,GI50,IGROV-1,3.12 µM (inactive)
same,GI50,SF-268,8.18 µM (inactive)
same,GI50,EKVX,8.38 µM (inactive)
same,GI50,NCI-H226,11.5 µM (inactive)
same,GI50,CAKI-1,33.4 µM (inactive)
same,GI50,A549,10.8 µM (inactive)
same,GI50,UO-31,12.1 µM (inactive)
same,GI50,NCI/ADR-RES,48.9 µM (inactive)
same,GI50,OVCAR-3,10.4 µM (inactive)
same,GI50,NCI-H522,4.15 µM (inactive)
same,GI50,Hs-578T,14.1 µM (inactive)
same,GI50,MOLT-4,1.49 µM (inactive)
same,GI50,HCT-116,6.01 µM (inactive)
same,GI50,786-0,5.53 µM (inactive)
same,GI50,K562,7.03 µM (inactive)
same,GI50,MCF7,13.6 µM (inactive)
same,GI50,DU-145,12 µM (inactive)
same,GI50,OVCAR-5,14.4 µM (inactive)
same,GI50,NCI-H460,5.6 µM (inactive)
same,GI50,ACHN,10.2 µM (inactive)
